Measurements: patent publication US20260109725A1, “MACROLIDE SENOLYTIC COMPOUNDS” (LUNELLA BIOTECH, INC., priority 2022, published 2026)
pIC50: −log10 of the molar value. Values after ≈ are worked out from the molar mass of the structure shown.

Key:
[1] = tested on: MRC-5 cells treated with BrdU (senescent fibroblasts); assay: SRB assay, BrdU-treated (senescent) MRC-5 cells; type: cell-based, human
Method: (§1) For example, in one assay bromodeoxyuridine (5-bromo-2′-deoxyuridine), also known as BrdU, was used to induce senescence in a cell population. BrdU is an analog of the nucleoside thymidine commonly used to identify proliferating cells. BrdU induces controlled DNA damage, and drives cells towards senescence with high efficiency. In the BrdU assay, normal fibroblasts are subjected to prolonged culture (8-days) in the presence of BrdU at 100 μM to induce controlled DNA-damage and senescence. […] Senolytic activity was assessed using the sulforhodamine B assay, also known in the art as the SRB assay. This assay measures the amount of protein remaining attached to the tissue-culture dishes, and is a surrogate marker for cell viability.
(§2) FIG. 1 compares SRB assay results for different concentrations of Azithromycin (100 µM and 50 μM) and Compound [I] (100 μM and 50 μM) of the present approach, on both control MRC-5 cells and MRC-5 cells treated with BrdU. […] (labelled as “Azi-Gal” in FIG. 1) for another 5 days. After that, the SRB assay was performed to determine the effects of the drug on cell viability, using normal MRC-5 cells as the control. […] However, at 50 μM Azithromycin had no effect on either the control cells or senescent cells.
(§3) BrdU Assay: Cells were plated into 24-well plates. Next day, half of the plate was treated with 100 μM of BrdU while control wells were treated with vehicle only (DMSO) and incubated for 8 days at 37° C. in a 5% CO2 humidified atmosphere. After 8 days of BrdU treatment cells were treated with various test compounds or drugs (e.g., azithromycin, roxithromycin, telithromycin, erythromycin, etc.) for another 3-5 days. BrdU or vehicle treatments were continued during the drug treatments as well.
(§4) Sulphorhodamine B assay: After the incubation of the plates cell viability was measured by Sulphorhodamine B assay (SRB). The assay is based on the measurement of cellular protein contents. Cells were fixed with 10% Trichloroacetic acid (TCA) for 1 hour at […], and were dried overnight at room temperature. Then, plates were incubated with SRB for 30 min, washed twice with 1% acetic acid and air dried for at least 1 h. Finally, the protein-bound dye was dissolved in a 10 mM Tris, pH 8.8, solution and read using a plate reader at 540-nm.

[2] = tested on: control MRC-5 cells (normal lung fibroblasts); assay: SRB assay, control (normal) MRC-5 cells; type: cell-based, human
Method: as §1, §2, §3, §4

MCF-7 cells = assay: mammosphere formation assay (3D anchorage independent growth); type: cell-based, human
Method: The compounds disclosed herein may also be used as therapeutic agent to selectively eradicate CSCs for treating and/or preventing tumor recurrence and/or metastasis. […] This assay measures the amount of residual protein that adheres to tissue culture dishes and is a surrogate marker of cell viability.
3D Anchorage Independent Growth Assay: This assay is also referred to as the mammosphere formation assay. A single-cell suspension was prepared using enzymatic, and manual disaggregation (25-g needle). Then, cells were plated at a density of 500 cells/cm^2 in mammosphere medium (DMEM-F12+1X B-27 Plus Supplement+20 ng/ml EGF+Pen/Strep) under non-adherent conditions, in culture dishes pre-coated with (2-hydroxyethylmethacrylate) (poly-HEMA, Sigma Aldrich Inc.), called “mammosphere plates.” Cells were grown for 5 days and maintained in a humidified incubator at 37° C. After 5 days of culture, 3D-mammospheres >50 μm were counted using an eye piece (“graticule”), and the percentage of cells plated which formed spheres was calculated and is referred to as percent mammosphere formation, and was normalized to one (1=100% MFE). 3D mammosphere formation efficiency (MFE) was analyzed in both the ATP-low and ATP-high sub-populations of cells. All 3D mammosphere experiments were performed in triplicate, at least 3 times independently.

[3] = tested on: Klebsiella pneumoniae ATCC 43816; assay: in vitro broth microdilution assay (MIC); type: cell-based; conditions: ATCC43816
Method: (§5) This is advantageous because use of the compounds of the present approach as therapeutic agents will have less of an impact on the development of antibiotic resistance. For example, embodiments of the present approach were screened for antibiotic activity, using the in vitro broth microdilution assay. […] The assay conditions, described by the Clinical and Laboratory Standards Institute were used for preparation of the inoculum, growth medium, and end point reading. Test substance was dissolved in 100% DMSO, suspended completely by vortexing, diluted by 2-fold serial titrations in the same vehicle, for a total of 11 test concentrations. A 4 μL aliquot of each dilution was added to 196 μL of broth medium seeded with the organism suspension in wells of a 96 well plate (bacterial count: 2-8×10(5) colony forming units/mL final). The final volume was 200 μL in each well and the final DMSO concentration was 2 percent. Test concentrations were 0.1 to 100 μM. Following incubation, the test plates were visually examined and wells were scored for growth or complete growth inhibition to define the minimum inhibitory concentration. Each test substance was evaluated with replicates. Vehicle controls and an active reference agent were used as blank and positive controls. Note that MRSA represents methicillin-resistant Staphylococcus aureus, and VRE represents vancomycin resistant Enterococcus.

[4] = tested on: Staphylococcus aureus ATCC 29213; assay: in vitro broth microdilution assay (MIC); type: cell-based; conditions: ATCC29213; Staphylococcus aureus ATCC 29213, QC strain
Method: as §5

[5] = tested on: Haemophilus influenzae ATCC 49247; assay: in vitro broth microdilution assay (MIC); type: cell-based; conditions: ATCC49247; Haemophilus influenzae ATCC 49247, QC strain
Method: as §5

[6] = tested on: Staphylococcus aureus ATCC 33591 MRSA; assay: in vitro broth microdilution assay (MIC); type: cell-based
Method: as §5

[7] = tested on: Enterococcus faecalis ATCC 29212; assay: in vitro broth microdilution assay (MIC); type: cell-based; conditions: ATCC29212; Enterococcus faecalis ATCC 29212, QC strain
Method: as §5

[8] = tested on: Acinetobacter baumannii ATCC 17978; assay: in vitro broth microdilution assay (MIC); type: cell-based; conditions: ATCC17978
Method: as §5

[9] = tested on: Streptococcus pneumoniae ATCC 49619; assay: in vitro broth microdilution assay (MIC); type: cell-based; conditions: ATCC49619; Streptococcus pneumoniae ATCC 49619, QC strain
Method: as §5

[10] = tested on: Escherichia coli JW5503 DEL-tolC; assay: in vitro broth microdilution assay (MIC); type: cell-based; conditions: JW5503DELTOLC
Method: as §5

[11] = tested on: Pseudomonas aeruginosa ATCC 27853; assay: in vitro broth microdilution assay (MIC); type: cell-based; conditions: ATCC27853; Pseudomonas aeruginosa ATCC 27853, QC strain
Method: as §5

[12] = tested on: Escherichia coli ATCC 25922; assay: in vitro broth microdilution assay (MIC); type: cell-based; conditions: ATCC25922; Escherichia coli ATCC 25922, QC strain
Method: as §5

[13] = tested on: Enterococcus faecium ATCC 700221 VanA VRE; assay: in vitro broth microdilution assay (MIC); type: cell-based
Method: as §5

[14] = SRB, control vs BrdU-treated MRC5

## CC[C@H]1OC(=O)[C@H](C)[C@@H](O[C@@H]2C[C@@](C)(OC)[C@@H](O)[C@H](C)O2)[C@H](C)[C@@H](O[C@@H]2O[C@H](C)C[C@H](N(C)C(=O)OCc3ccc(O[C@@H]4O[C@H](COC(C)=O)[C@H](OC(C)=O)[C@H](OC(C)=O)[C@H]4OC(C)=O)c([N+](=O)[O-])c3)[C@H]2O)[C@](C)(O)C[C@@H](C)CN(C)[C@H](C)[C@@H](O)[C@]1(C)O [Compound [IV], [(2R,3S,4S,5R,6S)-3,4,5-triacetoxy-6-[4-[[[(2S,3R,4S,6R)-2-[[(2R,3S,4R,5R,8R,10R,11R,12S,13S,14R)-2-ethyl-3,4,10-trihydroxy-13-[(2S,4R,5S,6S)-5-hydroxy-4-methoxy-4,6-dimethyl-tetrahydropyran-2-yl]oxy-3,5,6,8,10,12,14-heptamethyl-15-oxo-1-oxa-6-azacyclopentadec-11-yl]oxy]-3-hydroxy-6-methyl-tetrahydropyran-4-yl]-methyl-carbamoyl]oxymethyl]-2-nitro-phenoxy]tetrahydropyran-2-yl]methyl acetate]
[1]; control vs BrdU-treated MRC5
  selectivity for senescent cells over normal, non-senescent cells (SRB): no little selectivity

## CC[C@H]1OC(=O)[C@H](C)[C@@H](O[C@H]2C[C@@](C)(OC)[C@@H](O)[C@H](C)O2)[C@H](C)[C@@H](O[C@@H]2O[C@H](C)C[C@H](N(C)C)[C@H]2O)[C@](C)(O)C[C@@H](C)CN(C)[C@H](C)[C@@H](O)[C@]1(C)O [Azithromycin, reference compound]
[2]; 50 μM, 5 days
  effect on control cells (SRB): no effect
[2]; 100 μM, 5 days
  effect on viability of normal MRC-5 lung fibroblasts (SRB): no effect
MCF-7 cells; 200 μM
  inhibition of MCF-7 cells compared to the control (mammosphere formation): about 30%
MCF-7 cells; Homo sapiens, MCF7
  pIC50: 3.93
[3]
  MIC: 25 µM (≈ 18.7 µg/mL)
[4]
  MIC: 1.56 µM (≈ 1.17 µg/mL)
[5]
  MIC: 3.12 µM (≈ 2.34 µg/mL)
[6]
  MIC: > 100 µM
[7]
  MIC: 6.25 µM (≈ 4.68 µg/mL)
[8]
  MIC: 6.25 µM (≈ 4.68 µg/mL)
[9]
  MIC: 0.39 µM (≈ 0.292 µg/mL)
[10]
  MIC: 1.56 µM (≈ 1.17 µg/mL)
[11]
  MIC: 100 µM (≈ 74.9 µg/mL)
[12]
  MIC: 6.25 µM (≈ 4.68 µg/mL)
[13]
  MIC: > 100 µM
[1]; 50 μM, 5 days after 8 days BrdU
  effect on senescent cells (SRB): no effect
[1]; 100 μM, 5 days after 8 days BrdU
  effect on senescent MRC-5 fibroblasts (SRB): selectively killed

## CC[C@H]1OC(=O)[C@H](C)[C@@H](O[C@@H]2C[C@@](C)(OC)[C@@H](O)[C@H](C)O2)[C@H](C)[C@@H](O[C@@H]2O[C@H](C)C[C@H](N(C)C)[C@H]2OC(=O)CCC(=O)OCc2ccc(O[C@@H]3O[C@H](COC(C)=O)[C@H](OC(C)=O)[C@H](OC(C)=O)[C@H]3OC(C)=O)c([N+](=O)[O-])c2)[C@](C)(O)C[C@@H](C)CN(C)[C@H](C)[C@@H](O)[C@]1(C)O [Compound [III], O4-[(2S,3R,4S,6R)-4-(dimethylamino)-2-[[(2R,3S,4R,5R,8R,10R,11R,12S,13S,14R)-2-ethyl-3,4,10-trihydroxy-13-[(2S,4R,5S,6S)-5-hydroxy-4-methoxy-4,6-dimethyl-tetrahydropyran-2-yl]oxy-3,5,6,8,10,12,14-heptamethyl-15-oxo-1-oxa-6-azacyclopentadec-11-yl]oxy]-6-methyl-tetrahydropyran-3-yl] O1-[[3-nitro-4-[(2S,3R,4S,5S,6R)-3,4,5-triacetoxy-6-(acetoxymethyl)tetrahydropyran-2-yl]oxy-phenyl]methyl]butanedioate]
[1]; [14]
  potency relative to the parent compound, Azithromycin (SRB): about half
  senolytic activity compared to Azithromycin and Compound [I]: significantly less senolytic activity

## CC[C@H]1OC(=O)[C@H](C)[C@@H](O[C@@H]2C[C@@](C)(OC)[C@@H](O)[C@H](C)O2)[C@H](C)[C@@H](O[C@@H]2O[C@H](C)C[C@H](N(C)C)[C@H]2OC(=O)OCc2ccc(O[C@@H]3O[C@H](COC(C)=O)[C@H](OC(C)=O)[C@H](OC(C)=O)[C@H]3OC(C)=O)c([N+](=O)[O-])c2)[C@](C)(O)C[C@@H](C)C(=O)[C@H](C)[C@@H](O)[C@]1(C)O [Compound [VI], 2R,3S,4S,5R,6S)-3,4,5-triacetoxy-6-[4-[[(2S,3R,4S,6R)-4-(dimethylamino)-2-[[(3R,4S,5S,6R,7R,9R,11R,12R,13S,14R)-14-ethyl-7,12,13-trihydroxy-4-[(2S,4R,5S,6S)-5-hydroxy-4-methoxy-4,6-dimethyl-tetrahydropyran-2-yl]oxy-3,5,7,9,11,13-hexamethyl-2,10-dioxo-oxacyclotetradec-6-yl]oxy]-6-methyl-tetrahydropyran-3-yl]oxycarbonyloxymethyl]-2-nitro-phenoxy]tetrahydropyran-2-yl]methyl acetate]
[2]; compared to Roxithromycin and Erythromycin
  preference for normal, non-senescent control cells (SRB): preference for the normal, non-senescent control cells
[1]; BrdU-treated MRC5
  effect on the senescent cells (SRB): little effect
